The nature of one data set: Body weight analysis. The following applies: ATH490 athymic mice; D0-D30. Format: in vivo. The method, then:
Animals were monitored for food and water consumption every day, and their body weights and tumor volumes were measured twice per week. Tumor volumes were measured with a digital caliper and were determined by using the following formula: ½ length×width^2. Blood samples were collected via cardiac puncture and processed further for ALT and AST measurements. The animals were then immediately euthanized by carbon dioxide. Tumors and vital organs (spleen, kidney, liver and lung) were collected and fixed in 10% buffered formalin at 4° C. overnight before being processed for paraffin embedding. The paraffin-embedded blocks were then cut into 4-5 μm thick sections. Each section of tumors and organs was stained with hematoxylin and eosin (H&E).
Changes in body weight, hemoglobin (Hb) and the amount and ratio of alanine transaminase (ALT)/aspartate transaminase (AST) were used to measure toxic effects. In addition, vital organs (liver, spleen, kidney and lung) were analyzed by […] after they were harvested, fixed, processed, paraffin-embedded, sectioned, and stained as described above.
. Six-week old ATH40 athymic nude mice were treated as indicated in the legend. “Tax” denotes that paclitaxel was injected by i.v. as described in Table 11. D0-D30 denotes day 0 to day 30 post-drug treatment. The numbers in brackets show drug concentrations in mg/kg body weight. […]

The next data set has as its system MDA-MB231TaxR. In words: SRB-based cytotoxicity assay, single and combination with paclitaxel. The following applies: for killing of MDA-MB231TaxR compared with parental MDA-MB231: TaxR selected in 100.0 nM paclitaxel. Type of data set: cell-based. The method, then: All of the cell lines used were purchased from ATCC and cultured in RPMI-1640 supplemented with 10% fetal bovine serum and antibiotics (100 units penicillin/100 μg/ml streptomycin), unless stated otherwise. 1845B5 and MCF-10A non-cancer breast cell lines were cultured in DME/F12 medium supplemented with 10% fetal bovine serum, antibiotics and growth factors. […] The human small cell lung carcinoma H69 cell line and its multidrug-resistant MRP1-overexpressing isogenic H69AR cell line were purchased from ATCC. […] H69 cells grow as large multi-cell aggregates, making it difficult to accurately count cell numbers. […] The IL-6 dependent bortezomib-resistant ANBL6-BR cell line was further supplemented with 1 ng/ml of IL-6. The MCF10AT1 and MCF10CA1a cell lines are isogenic to the MCF10A cell line, and obtained from Dr. Valerie Weaver at the Center for Bioengineering and Tissue Regeneration, UCSF, CA, USA. MCF10AT1 is a premalignant cell line generated by transforming MCF10A with c-Ha-Ras; and MCF10CA1a was isolated by selecting malignant cells after MCF10AT1 cells were engrafted into mice (Liu & Lin 2004; […] et al. 2009). […] The drug-resistant cells were cultured in the absence of drug for at least one passage before carrying out experiments. All cells were maintained in a humidified incubator at 37° C. […] Cell line authentication was performed using short tandem repeat (STR) profiling. For (anti)proliferation assays, 4,000-5,000 cells/well of the 96-well clustered dish were incubated for 16 hours, as described previously (Hu et al., 2008; Skehan et al., 1990). […] Some wells were treated with 100 μl of 10% trichloroacetic acid (TCA) as a negative control and sham (medium with dimethyl sulfoxide; DMSO) treated cells were used as a positive control. […] TCA was removed and cells were washed with cold tap water, and plate was air-dried, followed by addition of 50 μl of 0.4% SRB staining solution to each well. After 30 minutes incubation, SRB staining solution was removed. Cells were washed with 1% acetic acid solution, and then washed with tap water to remove unbound staining solution, followed by air-drying. 200 μl of 10 mM (pH10.5) trizma base buffer was added to each well to solubilise macromolecules. […] Cell growth (inhibition) was calculated by the following formula: % cells proliferation=[(AT-CT)/(ST-CT)]×100 wherein AT=absorbance of treated cells, CT=absorbance of negative control cells, and ST=absorbance of sham treated cells. […] The combinational index (CI) was calculated as described previously (Chou 2006). […] CI values were determined from four independent experiments.

In a further data set the test system is HeLa. Put plainly: Immunofluorescent staining: centrosomes and chromosome segregation. Type of data set: cell-based. To be noted: for ACS (abnormal chromosome segregation) / Monopolar centrosome: 3 μM. The method, then:
Cells on coverslips placed on the bottom of 35 mm tissue culture plates or 6-well clustered dishes were treated for 12-24 hours with the CTR compounds to be tested. Subsequently, the cells were fixed with 100% methanol for 15 minutes and washed with 1×PBS three times. Cells were then “blocked” with 3% BSA or 1% (v/v) FBS plus 1×PBST (1×PBS buffer containing 0.1% (v/v) Triton X-100 or 0.2% Tween 20), and incubated overnight at 4° C. with primary antibodies, with gentle agitation. Unbound primary antibodies were washed off with PBST, and a secondary antibody was added for 1 hour in the dark. Secondary antibodies were conjugated to Alexa 488 or 568. DNA was counterstained with DRAQ5 or DAPI. Subsequently, coverslips were washed three times with 1×PBST for 10 minutes each, followed by mounting them onto slides with 90% glycerol in 1×PBS. Each slide was visualized with a Carl Zeiss 510 Meta laser scanning microscope or an Axioscope. Image analysis was done with an LSM image examiner equipped with the microscopes (Carl Zeiss, Toronto, ON, Canada).
The cancer-specific increase of mitotic cells in response to CTR-17 was correlated with the accumulation of cells with monopolar centrosomes and abnormal chromosome alignment/segregation (FIG. 11, Table 5). Cells were either sham-treated or treated with 3.0 μM CTR-17 for 12 hours or 24 hours, followed by analyses of cell cycle progression, centrosome abnormalities, and chromosome alignment/segregation. […] The mitotic index was determined by fluorescence microscopic analysis of at least 200 cells for each cell type, and data was expressed as percentage mean±S.E.M. of at least two independent experiments.
Asynchronously growing cells were treated with 1 μM CTR-20 for 24 hours, followed by examining cells arrested in mitosis. The percentage of mitotic cells was calculated based on the examination of at least 250-400 cells. Cells treated with 1 μM CTR-20 for 24 hours on coverslips were fixed with ice-cold methanol, immunostained with an α-tubulin antibody, and then counterstained DNA with DRAQ5 prior to observing by florescent microscopy (Table 6). […] Similarly, cells treated with 1 μM CTR-20 accumulated monopolar centrosomes and defective chromosomal alignment and segregation in a cancer-specific manner.

This note sets out measurements from patent US20180344725A1, “QUINOLONE CHALCONE COMPOUNDS AND USES THEREOF” (priority 2015, published 2018).

For the compound `COc1ccccc1C(=O)/C=C/c1cc2ccccc2[nH]c1=O` [CTR-17, (E)-3-(3-(2-Methoxyphenyl)-3-oxoprop-1-enyl)quinolin-2(1H)-one], the “toxic side effect as determined by the changes in body weights” value in the data set “Body weight analysis” is “Neither CTR-17 nor CTR-20 caused any notable toxic side effect”. Also, the “killing of MDA-MB231TaxR compared with parental MDA-MB231” value with MDA-MB231TaxR was “to the same degree as the parental MDA-MB231 cells”. Also, the figures for the “ACS (abnormal chromosome segregation)” value in the data set on HeLa (12 h post-treatment) and in the data set on HeLa (24 h post-treatment) were 20.0 ± 4.5% of total mitotic cells and 0.0 ± 0.0% of total mitotic cells, respectively. Besides, the Monopolar centrosome with HeLa (12 h post-treatment) is 80.0 ± 4.5% of total mitotic cells; in the data set on HeLa (24 h post-treatment), 100.0 ± 0.0% of total mitotic cells.
In the case of `CC(=O)O[C@H]1C(=O)[C@@]2(C)[C@H]([C@H](OC(=O)c3ccccc3)[C@]3(O)C[C@H](OC(=O)[C@H](O)[C@@H](NC(=O)c4ccccc4)c4ccccc4)C(C)=C1C3(C)C)[C@]1(OC(C)=O)CO[C@@H]1C[C@@H]2O` [Paclitaxel, reference compound], the Cell survival rate in the data set on MDA-MB231TaxR (single agent 18.75 nM) worked out at 95.84 ± 1.86; with MDA-MB231TaxR (single agent 37.5 nM), 90.28 ± 3.58; in the data set on MDA-MB231TaxR (single agent 75.0 nM), 90.98 ± 4.49; in the data set on MDA-MB231TaxR (single agent 150 nM) it was 82.41 ± 5.00; with MDA-MB231TaxR (single agent 300 nM), 57.75 ± 3.78.
For the compound `COc1ccc2[nH]c(=O)c(/C=C/C(=O)c3ccccc3OC)cc2c1` [CTR-20, (E)-6-Methoxy-3-(3-(2-methoxyphenyl)-3-oxoprop-1-enyl) quinolin-2(1H)-one], in “Body weight analysis”, the “toxic side effect as determined by the changes in body weights” value is reported as “Neither CTR-17 nor CTR-20 caused any notable toxic side effect”. Also, the “killing of MDA-MB231TaxR compared with parental MDA-MB231” value in the data set with MDA-MB231TaxR was “to the same degree as the parental MDA-MB231 cells”. For the same compound, the Cell survival rate with MDA-MB231TaxR (single agent 0.3 μM) was 63.7 ± 2.52. In the data set with HeLa (1 μM, 24 hours), the “ACA/S (%) (abnormal chromosome alignment and segregation)” value came to 34.97 ± 1.96%; the “Monopolar (%)” value was found to be 48.13 ± 3.34%.
On to `COc1ccccc1C(=O)/C=C/c1cc2cccc(OC)c2[nH]c1=O` [CTR-21, (E)-8-methoxy-3-(3-(2-methoxyphenyl)-3-oxoprop-1-enyl) quinolin-2(1H)-one], for which the “killing of MDA-MB231TaxR compared with parental MDA-MB231” value in the data set on MDA-MB231TaxR is given as “to the same degree as the parental MDA-MB231 cells”. The Cell survival rate with MDA-MB231TaxR (single agent 23.4 nM) is 52.10 ± 3.71.
With `CCOc1ccccc1C(=O)/C=C/c1cc2ccccc2[nH]c1=O` [CTR-32, (E)-3-(3-(2-ethoxyphenyl)-3-oxoprop-1-enyl)quinolin-2(1H)-one], in the data set on MDA-MB231TaxR, the “killing of MDA-MB231TaxR compared with parental MDA-MB231” value is “to the same degree as the parental MDA-MB231 cells”. The Cell survival rate with MDA-MB231TaxR (single agent 23.4 nM) was found to be 53.07 ± 6.50.
